# Test results as given in patent publication EP4596574A1, “GLP-1/GCG/GIP TRIPLE-RECEPTOR AGONIST AND USE THEREOF” (Sunshine Lake Pharma Co., Ltd., priority 2022, dated 2024).
# Key:
# Format in all cases: cell-based
# GLP-1R = target: T1, GLP-1R (Homo sapiens, UniProt P43220); assay: In vitro cell activity, cAMP production in HEK293 cells expressing GLP-1R; conditions: HEK293-GLP-1R cells, cAMP; read-out: GLP-1R (EC50)
# T1 construct: expressed in transfected cells; host or cells: HEK293 (HEK293-GLP-1R)
# T1 sequence (P43220 24-463, species assumed): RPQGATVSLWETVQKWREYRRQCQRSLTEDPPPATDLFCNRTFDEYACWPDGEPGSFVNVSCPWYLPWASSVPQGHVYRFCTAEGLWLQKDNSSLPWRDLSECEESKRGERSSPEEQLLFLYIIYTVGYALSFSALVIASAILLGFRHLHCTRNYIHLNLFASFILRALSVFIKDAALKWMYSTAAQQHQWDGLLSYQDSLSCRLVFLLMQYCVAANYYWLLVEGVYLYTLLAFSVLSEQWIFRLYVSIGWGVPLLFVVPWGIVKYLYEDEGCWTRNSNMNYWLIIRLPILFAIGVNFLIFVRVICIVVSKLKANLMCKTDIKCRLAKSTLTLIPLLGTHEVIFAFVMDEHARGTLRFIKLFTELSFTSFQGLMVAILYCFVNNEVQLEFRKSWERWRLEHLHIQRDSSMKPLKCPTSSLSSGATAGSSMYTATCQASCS
# Method in brief: (§1)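 Cells were plated at 4×10^5 cells/mL, and detection reagents (cAMP-d2, anti-cAMP cryptate, 1:1) were incubated 1 h at room temperature in the dark or overnight at 4 °C.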
# GCGR = target: T2, GCGR (Homo sapiens, UniProt P47871); assay: In vitro cell activity, cAMP production in HEK293 cells expressing GCGR; conditions: HEK293-GCGR cells, cAMP; read-out: GCGR (EC50)
# T2 construct: expressed in transfected cells; host or cells: HEK293 (HEK293-GCGR)
# T2 sequence (P47871 26-477, species assumed): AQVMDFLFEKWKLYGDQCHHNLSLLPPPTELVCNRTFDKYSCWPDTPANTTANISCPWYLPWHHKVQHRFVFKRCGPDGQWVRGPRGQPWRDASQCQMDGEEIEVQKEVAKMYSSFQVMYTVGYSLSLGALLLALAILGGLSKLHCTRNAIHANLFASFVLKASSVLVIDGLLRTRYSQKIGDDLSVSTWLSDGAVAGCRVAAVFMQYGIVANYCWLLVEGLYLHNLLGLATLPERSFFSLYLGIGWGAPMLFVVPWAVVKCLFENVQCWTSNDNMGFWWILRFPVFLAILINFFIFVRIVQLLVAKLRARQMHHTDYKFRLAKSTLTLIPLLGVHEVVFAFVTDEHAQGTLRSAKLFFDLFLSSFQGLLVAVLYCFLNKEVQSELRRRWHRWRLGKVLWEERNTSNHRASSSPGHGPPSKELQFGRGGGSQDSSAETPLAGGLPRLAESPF
# Method in brief: as §1
# GIPR = target: T3, GIPR (Homo sapiens, UniProt P48546); assay: In vitro cell activity, cAMP production in HEK293 cells expressing GIPR; conditions: HEK293-GIPR cells, cAMP; read-out: GIPR (EC50)
# T3 construct: expressed in transfected cells; host or cells: HEK293 (HEK293-GIPR)
# T3 sequence (P48546 22-466): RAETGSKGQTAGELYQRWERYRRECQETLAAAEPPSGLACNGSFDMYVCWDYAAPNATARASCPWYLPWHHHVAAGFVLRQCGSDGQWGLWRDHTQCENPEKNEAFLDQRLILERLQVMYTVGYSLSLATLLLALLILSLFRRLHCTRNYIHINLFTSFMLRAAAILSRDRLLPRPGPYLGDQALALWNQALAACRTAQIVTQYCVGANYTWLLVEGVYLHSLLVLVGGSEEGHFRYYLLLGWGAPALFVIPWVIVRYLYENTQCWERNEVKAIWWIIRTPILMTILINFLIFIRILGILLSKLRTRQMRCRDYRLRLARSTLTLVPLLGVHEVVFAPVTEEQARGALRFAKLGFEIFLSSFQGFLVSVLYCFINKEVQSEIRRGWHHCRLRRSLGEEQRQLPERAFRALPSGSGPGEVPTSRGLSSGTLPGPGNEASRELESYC
# Method in brief: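 cAMP accumulation is quantified by homogeneous TR-FRET (cAMP-d2 plus anti-cAMP cryptate) in GIPR-expressing HEK293 cells seeded from a 4×10^5 cells/mL suspension and treated with compound. The signal ratio is plotted against concentration and fitted to a four-parameter curve to give EC50.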
smiles,measurement,setting,value
CC[C@H](C)[C@H](NC(=O)[C@H](Cc1ccccc1)NC(=O)[C@H](C)NC(=O)[C@H](CCCCN)NC(=O)[C@H](CCC(N)=O)NC(=O)[C@H](CCCCN)NC(=O)[C@H](CCCCNC(=O)COCCOCCNC(=O)CC[C@H](NC(=O)CCCCCCCCCCCCCCCCC(=O)O)C(=O)O)NC(=O)[C@H](CCC(=O)O)NC(=O)[C@H](CC(=O)O)NC(=O)[C@H](CC(C)C)NC(=O)[C@H](CC(C)C)NC(=O)[C@@H](NC(=O)[C@H](CO)NC(=O)[C@H](Cc1ccc(O)cc1)NC(=O)[C@H](CC(=O)O)NC(=O)[C@H](CO)NC(=O)[C@@H](NC(=O)[C@](C)(Cc1ccccc1F)NC(=O)[C@@H](NC(=O)CNC(=O)[C@H](CCC(N)=O)NC(=O)C(C)(C)NC(=O)[C@@H](N)Cc1ccc(O)cc1)[C@@H](C)O)[C@@H](C)O)[C@@H](C)CC)C(=O)N[C@@H](CCC(=O)O)C(=O)N[C@@H](Cc1ccc(O)cc1)C(=O)N[C@@H](CC(C)C)C(=O)N[C@@H](CC(C)C)C(=O)N[C@@H](C)C(=O)NCC(=O)NCC(=O)N1CCC[C@H]1C(=O)N[C@@H](CO)C(=O)N[C@@H](CO)C(=O)NCC(=O)N[C@@H](C)C(=O)N1CCC[C@H]1C(=O)N1CCC[C@H]1C(=O)N1CCC[C@H]1C(=O)N[C@@H](CO)C(N)=O [HEC-PT130],EC50,GLP-1R,0.17 nM
same,EC50,GCGR,4.86 nM
same,EC50,GIPR,0.541 nM
CC[C@H](C)[C@H](NC(=O)[C@H](Cc1ccccc1)NC(=O)[C@H](C)NC(=O)[C@H](CCCNC(=N)N)NC(=O)[C@H](CCC(N)=O)NC(=O)[C@H](C)NC(=O)[C@H](CCCCNC(=O)COCCOCCNC(=O)CC[C@H](NC(=O)CCCCCCCCCCCCCCCCCCC(=O)O)C(=O)O)NC(=O)[C@H](CCC(=O)O)NC(=O)[C@H](CC(=O)O)NC(=O)[C@H](CC(C)C)NC(=O)[C@H](CC(C)C)NC(=O)[C@@H](NC(=O)[C@H](CO)NC(=O)[C@H](Cc1ccc(O)cc1)NC(=O)[C@H](CC(=O)O)NC(=O)[C@H](CO)NC(=O)[C@@H](NC(=O)[C@](C)(Cc1ccccc1F)NC(=O)[C@@H](NC(=O)CNC(=O)[C@H](Cc1c[nH]cn1)NC(=O)C(C)(C)NC(=O)[C@@H](N)Cc1ccc(O)cc1)[C@@H](C)O)[C@@H](C)O)[C@@H](C)CC)C(=O)N[C@@H](CCC(=O)O)C(=O)N[C@@H](Cc1ccc(O)cc1)C(=O)N[C@@H](CC(C)C)C(=O)N[C@@H](CC(C)C)C(=O)N[C@@H](CCC(=O)O)C(=O)NCC(=O)NCC(=O)N1CCC[C@H]1C(=O)N[C@@H](CO)C(=O)N[C@@H](CO)C(=O)NCC(=O)N[C@@H](C)C(=O)N1CCC[C@H]1C(=O)N1CCC[C@H]1C(=O)N1CCC[C@H]1C(=O)N[C@@H](CO)C(=O)O [HEC-PT84],EC50,GLP-1R,0.291 nM
same,EC50,GCGR,0.306 nM
same,EC50,GIPR,0.232 nM
CC[C@H](C)[C@H](NC(=O)[C@H](Cc1ccccc1)NC(=O)[C@H](CCC(=O)O)NC(=O)[C@H](CCCNC(=N)N)NC(=O)[C@H](C)NC(=O)[C@H](CCCNC(=N)N)NC(=O)[C@H](CCCCNC(=O)COCCOCCNC(=O)CC[C@H](NC(=O)CCCCCCCCCCCCCCCCCCC(=O)O)C(=O)O)NC(=O)[C@H](CCC(=O)O)NC(=O)[C@H](CC(=O)O)NC(=O)[C@H](CC(C)C)NC(=O)[C@H](CC(C)C)NC(=O)[C@@H](NC(=O)[C@H](CO)NC(=O)[C@H](Cc1ccc(O)cc1)NC(=O)[C@H](CC(=O)O)NC(=O)[C@H](CO)NC(=O)[C@@H](NC(=O)[C@](C)(Cc1ccccc1F)NC(=O)[C@@H](NC(=O)CNC(=O)[C@H](Cc1c[nH]cn1)NC(=O)C(C)(C)NC(=O)[C@@H](N)Cc1ccc(O)cc1)[C@@H](C)O)[C@@H](C)O)[C@@H](C)CC)C(=O)N[C@@H](CCC(=O)O)C(=O)N[C@@H](Cc1c[nH]c2ccccc12)C(=O)N[C@@H](CC(C)C)C(=O)N[C@@H](CC(C)C)C(=O)N[C@@H](CCC(=O)O)C(=O)NCC(=O)NCC(=O)N1CCC[C@H]1C(=O)N[C@@H](CO)C(=O)N[C@@H](CO)C(=O)NCC(=O)N[C@@H](C)C(=O)N1CCC[C@H]1C(=O)N1CCC[C@H]1C(=O)N1CCC[C@H]1C(=O)N[C@@H](CO)C(=O)O [HEC-PT89],EC50,GLP-1R,0.172 nM
same,EC50,GCGR,0.0419 nM
same,EC50,GIPR,0.214 nM
CC[C@H](C)[C@H](NC(=O)[C@H](CO)NC(=O)[C@H](Cc1ccc(O)cc1)NC(=O)[C@H](CC(=O)O)NC(=O)[C@H](CO)NC(=O)[C@@H](NC(=O)[C@](C)(Cc1ccccc1F)NC(=O)[C@@H](NC(=O)CNC(=O)[C@H](Cc1c[nH]cn1)NC(=O)C(C)(C)NC(=O)[C@@H](N)Cc1ccc(O)cc1)[C@@H](C)O)[C@@H](C)O)C(=O)N[C@@H](CC(C)C)C(=O)N[C@@H](CC(C)C)C(=O)N[C@@H](CC(=O)O)C(=O)N[C@@H](CCC(=O)O)C(=O)N[C@@H](CCCCNC(=O)COCCOCCNC(=O)CC[C@H](NC(=O)CCCCCCCCCCCCCCCCC(=O)O)C(=O)O)C(=O)N[C@@H](C)C(=O)N[C@@H](CCC(N)=O)C(=O)NC(C)(C)C(=O)N[C@@H](CCC(=O)O)C(=O)N[C@@H](Cc1ccccc1)C(=O)N[C@H](C(=O)N[C@@H](CCC(=O)O)C(=O)N[C@@H](Cc1c[nH]c2ccccc12)C(=O)N[C@@H](CC(C)C)C(=O)N[C@@H](CC(C)C)C(=O)N[C@@H](C)C(=O)NCC(=O)NCC(=O)N1CCC[C@H]1C(=O)N[C@@H](CO)C(=O)N[C@@H](CO)C(=O)NCC(=O)N[C@@H](C)C(=O)N1CCC[C@H]1C(=O)N1CCC[C@H]1C(=O)N1CCC[C@H]1C(=O)N[C@@H](CO)C(N)=O)[C@@H](C)CC [HEC-PT107],EC50,GLP-1R,0.267 nM
same,EC50,GCGR,3.56 nM
same,EC50,GIPR,0.079 nM
CC[C@H](C)[C@H](NC(=O)[C@H](Cc1ccccc1)NC(=O)[C@H](CCC(=O)O)NC(=O)[C@H](CCC(N)=O)NC(=O)[C@H](CCC(N)=O)NC(=O)[C@H](C)NC(=O)[C@H](CCCCNC(=O)COCCOCCNC(=O)CC[C@H](NC(=O)CCCCCCCCCCCCCCCCCCC(=O)O)C(=O)O)NC(=O)[C@H](CCC(=O)O)NC(=O)[C@H](CC(=O)O)NC(=O)[C@H](CC(C)C)NC(=O)[C@H](CC(C)C)NC(=O)[C@@H](NC(=O)[C@H](CO)NC(=O)[C@H](Cc1ccc(O)cc1)NC(=O)[C@H](CC(=O)O)NC(=O)[C@H](CO)NC(=O)[C@@H](NC(=O)[C@](C)(Cc1ccccc1F)NC(=O)[C@@H](NC(=O)CNC(=O)[C@H](CCC(N)=O)NC(=O)C(C)(C)NC(=O)[C@@H](N)Cc1ccc(O)cc1)[C@@H](C)O)[C@@H](C)O)[C@@H](C)CC)C(=O)N[C@@H](CCC(=O)O)C(=O)N[C@@H](Cc1c[nH]c2ccccc12)C(=O)N[C@@H](CC(C)C)C(=O)N[C@@H](CC(C)C)C(=O)N[C@@H](C)C(=O)NCC(=O)NCC(=O)N1CCC[C@H]1C(=O)N[C@@H](CO)C(=O)N[C@@H](CO)C(=O)NCC(=O)N[C@@H](C)C(=O)N1CCC[C@H]1C(=O)N1CCC[C@H]1C(=O)N1CCC[C@H]1C(=O)N[C@@H](CO)C(=O)O [HEC-PT90],EC50,GLP-1R,0.313 nM
same,EC50,GCGR,7.07 nM
same,EC50,GIPR,0.186 nM
CC[C@H](C)[C@H](NC(=O)[C@H](Cc1ccccc1)NC(=O)[C@H](C)NC(=O)[C@H](CCC(N)=O)NC(=O)[C@H](C)NC(=O)[C@H](CCCNC(=N)N)NC(=O)[C@H](CCCCNC(=O)COCCOCCNC(=O)CC[C@H](NC(=O)CCCCCCCCCCCCCCCCCCC(=O)O)C(=O)O)NC(=O)[C@H](CCC(=O)O)NC(=O)[C@H](CC(=O)O)NC(=O)[C@H](CC(C)C)NC(=O)[C@H](CC(C)C)NC(=O)[C@@H](NC(=O)[C@H](CO)NC(=O)[C@H](Cc1ccc(O)cc1)NC(=O)[C@H](CC(=O)O)NC(=O)[C@H](CO)NC(=O)[C@@H](NC(=O)[C@](C)(Cc1ccccc1F)NC(=O)[C@@H](NC(=O)CNC(=O)[C@H](CCC(N)=O)NC(=O)C(C)(C)NC(=O)[C@@H](N)Cc1ccc(O)cc1)[C@@H](C)O)[C@@H](C)O)[C@@H](C)CC)C(=O)N[C@@H](CCC(=O)O)C(=O)N[C@@H](Cc1ccc(O)cc1)C(=O)N[C@@H](CC(C)C)C(=O)N[C@@H](CC(C)C)C(=O)N[C@@H](CCC(=O)O)C(=O)NCC(=O)NCC(=O)N1CCC[C@H]1C(=O)N[C@@H](CO)C(=O)N[C@@H](CO)C(=O)NCC(=O)N[C@@H](C)C(=O)N1CCC[C@H]1C(=O)N1CCC[C@H]1C(=O)N1CCC[C@H]1C(=O)N[C@@H](CO)C(=O)O [HEC-PT94],EC50,GLP-1R,0.541 nM
same,EC50,GCGR,0.0442 nM
same,EC50,GIPR,1.3 nM
